# Source: patent publication US5698411A, “Method for determining activity of enzymes in metabolically active whole cells” (priority 1995, dated 1997)
# Numbered stars: 1 amine (or outer) side, 2 acyl side, 3 side chain; on linkers, the order of the positions; unused ones are H or OH. Bridge positions count the residues as written; N and C are the ends. Peptide text beside a SMILES is read from it. I, II: the chains in the order shown. Rhodamine110 = O=C1OC2(c3ccc(N[*:1])cc3Oc3cc(N[*:2])ccc32)c2ccccc21
# What was measured:
# Assay type in all cases: cell-based, human
# monocytes = experiment: aberrant enzyme activities in febrile children, monocytes (Table 7)
# lymphocytes [1] = experiment: aberrant enzyme activities in febrile children, lymphocytes (Table 7)
# granulocytes [2] = experiment: aberrant enzyme activities in febrile children, granulocytes (Table 7)
# granulocytes [3] = experiment: peptidase activity in leukemia and non-leukemia patients, granulocytes (Table 6C); parameters: unit not given here
# Text: (§1) Artificial intelligence was used to analyze data of cellular enzyme functions, and determine normal and disease states. Peptidases were used to distinguish leukemia from non-leukemia (output pattern). For input patterns lymphocyte and granulocyte cell types were used with aminopeptidases, cathepsins and dipeptidylpeptidase enzyme activities. In this Example, illustrated in Tables 6A-6C, three normals and three leukemia patients were used as known output patterns for the neural network to learn (in practice, the larger the learning set the more accurate unknown prediction will be). Unknowns were then presented to the learned algorithm as shown in the test case examples. Clinical diagnosis was confirmed by physicians. The trained neural network was able to correctly classify the leukemia from the non-leukemia.
# lymphocytes [4] = experiment: peptidase activity in leukemia and non-leukemia patients, lymphocytes (Table 6C); parameters: unit not given here
# Text: as §1
smiles,measurement,setting,value
"CC(C)C[C@H](NC(=O)[C@@H]1CCCN1C(=O)CN)C(=O)NCC(=O)N1CCC[C@H]1C(=O)Nc1ccc2c(c1)Oc1cc(NC(=O)[C@@H]3CCCN3C(=O)CNC(=O)[C@H](CC(C)C)NC(=O)[C@@H]3CCCN3C(=O)CN)ccc1C21OC(=O)c2ccccc21 [GPLGP, (H-Gly--Pro--Leu--Gly--Pro)2 Rho 110 .2TFA] (I: H-GPLGP / II: H-GPLGP; linker I:C-II:C via Rhodamine110)","aberrant enzyme activity, MONOS",monocytes; P89 Viral Stomatitis,.smallcircle.
same,"aberrant enzyme activity, LYMPHS",lymphocytes [1]; P88 Enteritis,.smallcircle.
same,"aberrant enzyme activity, LYMPHS",lymphocytes [1]; P89 Viral Stomatitis,.smallcircle.
same,"aberrant enzyme activity, LYMPHS",lymphocytes [1]; P102 UTI,.smallcircle.
same,"aberrant enzyme activity, GRANS",granulocytes [2]; P88 Enteritis,.smallcircle.
same,"aberrant enzyme activity, GRANS",granulocytes [2]; P89 Viral Stomatitis,.smallcircle.
same,"aberrant enzyme activity, GRANS",granulocytes [2]; P102 UTI,.smallcircle.
"C[C@@H](O)[C@H](N)C(=O)N1CCC[C@H]1C(=O)Nc1ccc2c(c1)Oc1cc(NC(=O)[C@@H]3CCCN3C(=O)[C@@H](N)[C@@H](C)O)ccc1C21OC(=O)c2ccccc21 [TP, (H-L-Thr--Pro)2 Rho 110 .2TFA]","enzyme activity, Grans",granulocytes [3]; J4 11/21/91 acute leuk.,5.96
same,"enzyme activity, Grans",granulocytes [3]; J4 12/2/91 A L,2.59
same,"enzyme activity, Grans",granulocytes [3]; J4 12/3/91 acute leuk.,1.93
same,"enzyme activity, Grans",granulocytes [3]; J5 11/27/91 A M L,2.72
same,"enzyme activity, Grans",granulocytes [3]; J19 11/27/91 C L L,2.95
same,"enzyme activity, Grans",granulocytes [3]; J22 12/2/91 A M L,2.33
same,"enzyme activity, Grans",granulocytes [3]; J22 12/9/91 A M L,2.51
same,"enzyme activity, Grans",granulocytes [3]; N191 normal,4.73
same,"enzyme activity, Grans",granulocytes [3]; N192 normal,4.62
same,"enzyme activity, Grans",granulocytes [3]; N193 normal,4.96
same,"enzyme activity, Grans",granulocytes [3]; N194 normal,3.77
same,"enzyme activity, Grans",granulocytes [3]; N195 normal,3.74
same,"enzyme activity, Grans",granulocytes [3]; N197 normal,3.82
same,"enzyme activity, Grans",granulocytes [3]; N199 normal,3.71
same,"enzyme activity, Grans",granulocytes [3]; N200 normal,4.69
same,"enzyme activity, Grans",granulocytes [3]; N201 normal,4.23
same,"enzyme activity, Grans",granulocytes [3]; N202 normal,4.44
same,"enzyme activity, Grans",granulocytes [3]; N206 normal,5.98
same,"enzyme activity, Grans",granulocytes [3]; P68 tachycardia,5.63
same,"enzyme activity, Grans",granulocytes [3]; P69 pancreatic CA,4.21
same,"enzyme activity, Grans",granulocytes [3]; P70 cirrhosis/hemobilia,4.02
same,"enzyme activity, Grans",granulocytes [3]; P71 ac. pyelonephritis,4.37
same,"enzyme activity, Lymphs",lymphocytes [4]; J4 11/21/91 acute leuk.,2.30
same,"enzyme activity, Lymphs",lymphocytes [4]; J4 12/2/91 A L,1.46
same,"enzyme activity, Lymphs",lymphocytes [4]; J4 12/3/91 acute leuk.,1.18
same,"enzyme activity, Lymphs",lymphocytes [4]; J5 11/27/91 A M L,1.32
same,"enzyme activity, Lymphs",lymphocytes [4]; J19 11/27/91 C L L,0.50
same,"enzyme activity, Lymphs",lymphocytes [4]; J22 12/2/91 A M L,0.99
same,"enzyme activity, Lymphs",lymphocytes [4]; J22 12/9/91 A M L,1.02
same,"enzyme activity, Lymphs",lymphocytes [4]; N191 normal,2.14
same,"enzyme activity, Lymphs",lymphocytes [4]; N192 normal,2.12
same,"enzyme activity, Lymphs",lymphocytes [4]; N193 normal,2.33
same,"enzyme activity, Lymphs",lymphocytes [4]; N194 normal,1.82
same,"enzyme activity, Lymphs",lymphocytes [4]; N195 normal,1.90
same,"enzyme activity, Lymphs",lymphocytes [4]; N197 normal,1.96
same,"enzyme activity, Lymphs",lymphocytes [4]; N199 normal,1.86
same,"enzyme activity, Lymphs",lymphocytes [4]; N200 normal,2.39
same,"enzyme activity, Lymphs",lymphocytes [4]; N201 normal,1.88
same,"enzyme activity, Lymphs",lymphocytes [4]; N202 normal,2.49
same,"enzyme activity, Lymphs",lymphocytes [4]; N206 normal,2.89
same,"enzyme activity, Lymphs",lymphocytes [4]; P68 tachycardia,1.90
same,"enzyme activity, Lymphs",lymphocytes [4]; P69 pancreatic CA,2.26
same,"enzyme activity, Lymphs",lymphocytes [4]; P70 cirrhosis/hemobilia,1.89
same,"enzyme activity, Lymphs",lymphocytes [4]; P71 ac. pyelonephritis,1.86
"N=C(N)NCCC[C@H](N)C(=O)Nc1ccc2c(c1)Oc1cc(NC(=O)[C@@H](N)CCCNC(=N)N)ccc1C21OC(=O)c2ccccc21 (stereo partly drawn) [ARG, (H-L-Arg)2 Rho 110 .4TFA]","aberrant enzyme activity, MONOS",monocytes; P95 Viral Syndrome,.smallcircle.
same,"aberrant enzyme activity, MONOS",monocytes; P96 Viral Syndrome,.smallcircle.
same,"aberrant enzyme activity, MONOS",monocytes; P97 Pyelonephritis,.smallcircle.
same,"aberrant enzyme activity, MONOS",monocytes; P99 Viral Syndrome,.smallcircle.
same,"aberrant enzyme activity, MONOS",monocytes; P102 UTI,.smallcircle.
same,"aberrant enzyme activity, LYMPHS",lymphocytes [1]; P92 Adenitis,.smallcircle.
same,"aberrant enzyme activity, LYMPHS",lymphocytes [1]; P95 Viral Syndrome,.smallcircle.
same,"aberrant enzyme activity, LYMPHS","lymphocytes [1]; P97 Pyelonephritis, listed as Arg-TFA",.smallcircle.
same,"aberrant enzyme activity, LYMPHS",lymphocytes [1]; P99 Viral Syndrome,.smallcircle.
same,"aberrant enzyme activity, LYMPHS",lymphocytes [1]; P102 UTI,.smallcircle.
same,"aberrant enzyme activity, LYMPHS",lymphocytes [1]; P103 Viral Syndrome,.smallcircle.
same,"aberrant enzyme activity, GRANS",granulocytes [2]; P95 Viral Syndrome,.smallcircle.
same,"aberrant enzyme activity, GRANS",granulocytes [2]; P96 Viral Syndrome,.smallcircle.
same,"aberrant enzyme activity, GRANS",granulocytes [2]; P102 UTI,.smallcircle.
